Earlier results as cited in patent US20180148480A1, “[…] ENHANCEMENT OF THE T-CELL ARM[…] AN ANTI-CANCER THERAPY” (THE JOHNS HOPKINS UNIVERSITY, priority 2015, published 2018).

How the values were obtained:
[1] = system: animals; conditions: single intravenous dose; kills 100% of animals within 24 hrs
[2] = system: LNCaP
[3] = system: SN12C (renal)
[4] = system: PC3
[5] = system: TSU (bladder)
[6] = system: DU145
[7] = system: CWR22Rv1
[8] = system: TT (thyroid)
[9] = system: LAPC-4

In the case of wild-type PA, the LD100 [1] is given as 0.1 µg, the LD50 concentration [2] is given as ≤ 50 pM and the LD50 concentration [3] is given as ≤ 50 pM. The LD50 concentration [4] was ≤ 50 pM, the LD50 concentration [5] was ≤ 50 pM and the LD50 concentration [6] was ≤ 50 pM. For the same substance, the LD50 concentration [7] was ≤ 50 pM, the LD50 concentration [8] was ≤ 50 pM and the LD50 concentration [9] was ≤ 50 pM.
